{"source": "patent US10131648B2", "about": "“Substituted benzothiophenyl derivatives as GPR40 agonists for the treatment of type II diabetes” (Janssen Pharmaceutica NV, priority 2014, dated 2018)"}
{"tested_on": "Male SD rats", "experiment": "Oral Glucose Tolerance Test", "assay_type": "in vivo, rat", "conditions": "10 mg/kg, thirty to forty min prior to oGTT (glucose, 2 g/kg, po), blood glucose AUC t=0 to t=120 minutes", "method": "Male SD rats (200-250 g) were housed 2 per cage in a temperature-controlled room with a 12-hour light/dark cycle. They were allowed ad libitum access to water and fed with normal rodent chow. The night before the oral glucose tolerance test (oGTT), the rats were transferred to clean cages and fasted overnight. On the morning of the oGTT, the rats were weighed and randomized into groups based on fasted blood glucose and body weight. Rats were dosed with vehicle (0.5% methocel) or compounds (10 mg/kg, po) thirty to forty min prior to the oGTT (glucose, 2 g/kg, po). Blood was collected from the tail vein at 0, 10, 30, 60 and 120 minutes after glucose challenge to measure blood glucose; plasma was used to determine insulin levels. The area under the curve for blood glucose excursion was calculated from t=0 to t=120 minutes. Percent lowering of glucose was calculated from the AUC data with respect to the vehicle-treated group.", "units": {"Percent Lowering of Glucose (AUC compound vs. AUC Vehicle)": "%"}}
{"smiles": "CC#C[C@@H](CC(=O)O)c1ccc(OCc2ccc3scc(-c4ccc(OCCOC)cc4C)c3c2)cc1", "note": "[Cpd 16, (3S)-3-(4-((3-(4-(2-Methoxyethoxy)-2-methylphenyl)benzo[b]thiophen-5-yl)methoxy)phenyl)hex-4-ynoic acid]", "Percent Lowering of Glucose (AUC compound vs. AUC Vehicle)": 76}
{"smiles": "CC#C[C@@H](CC(=O)O)c1ccc(OCc2ccc3scc(-c4ccccc4C)c3c2)cc1", "note": "[Cpd 2, (3S)-3-[4-[[3-(2-Methylphenyl)benzo[b]thiophen-5-yl]methoxy]phenyl]hex-4-ynoic acid]", "Percent Lowering of Glucose (AUC compound vs. AUC Vehicle)": 72}
{"molecular_target": "human GPR40 (Homo sapiens (Human), UniProt O14842)", "sequence (O14842 whole entry)": "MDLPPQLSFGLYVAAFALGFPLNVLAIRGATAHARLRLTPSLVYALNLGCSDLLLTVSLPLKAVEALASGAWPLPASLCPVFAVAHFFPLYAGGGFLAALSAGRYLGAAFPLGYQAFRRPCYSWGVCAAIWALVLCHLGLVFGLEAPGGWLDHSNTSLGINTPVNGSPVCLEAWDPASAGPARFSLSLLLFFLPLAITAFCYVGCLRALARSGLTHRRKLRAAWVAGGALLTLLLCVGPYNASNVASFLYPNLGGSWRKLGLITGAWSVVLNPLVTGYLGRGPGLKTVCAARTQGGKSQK", "experiment": "GPR40 Calcium Flux Assay", "assay_type": "cell-based", "conditions": "transfected HEK293 cells stably expressing human GPR40; Ca2+ mobilization; mean data; read-out: hGPR40 Ca^2+ Assay EC50", "units": {"EC50": "nM"}}
{"smiles": "CC#C[C@@H](CC(=O)O)c1ccc(OCc2ccc3scc(-c4ccc(OCCOC)cc4C)c3c2)cc1", "note": "[Cpd 16, (3S)-3-(4-((3-(4-(2-Methoxyethoxy)-2-methylphenyl)benzo[b]thiophen-5-yl)methoxy)phenyl)hex-4-ynoic acid]", "EC50": 5}
{"smiles": "CC#C[C@@H](CC(=O)O)c1ccc(OCc2ccc3scc(-c4ccccc4C)c3c2)cc1", "note": "[Cpd 2, (3S)-3-[4-[[3-(2-Methylphenyl)benzo[b]thiophen-5-yl]methoxy]phenyl]hex-4-ynoic acid]", "EC50": 5}
{"smiles": "CC#C[C@@H](CC(=O)O)c1ccc(OCc2ccc3scc(-c4ccc(OCC5CCS(=O)(=O)CC5)cc4C)c3c2)cc1", "note": "[Cpd 17, (3S)-3-(4-((3-(4-((1,1-Dioxidotetrahydro-2H-thiopyran-4-yl)methoxy)-2-methylphenyl)benzo[b]thiophen-5-yl)methoxy)phenyl)hex-4-ynoic acid]", "EC50": 6}
{"smiles": "CC#CC(CC(=O)O)c1ccc(OCc2ccc3scc(-c4ccc(OCCOC)cc4C)c3c2)nc1", "note": "(stereo not drawn) [Cpd 47, 3-(6-((3-(4-(2-Methoxyethoxy)-2-methylphenyl)benzo[b]thiophen-5-yl)methoxy)pyridin-3-yl)hex-4-ynoic acid]", "EC50": 20}
{"smiles": "CC#C[C@@H](CC(=O)O)c1ccc(OCc2ccc3scc(-c4cc(NS(C)(=O)=O)ccc4C)c3c2)cc1", "note": "[Cpd 43, (3S)-3-(4-((3-(2-Methyl-5-(methylsulfonamido)phenyl)benzo[b]thiophen-5-yl)methoxy)phenyl)hex-4-ynoic acid]", "EC50": 31}
{"smiles": "Cc1cc(C2CCS(=O)(=O)CC2)ccc1-c1csc2ccc(COc3ccc(C4(CC(=O)O)CC(=O)C4)cc3)cc12", "note": "[Cpd 29, 2-(1-(4-((3-(4-(1,1-Dioxidotetrahydro-2H-thiopyran-4-yl)-2-methylphenyl)benzo[b]thiophen-5-yl)methoxy)phenyl)-3-oxocyclobutyl)acetic acid]", "EC50": 34}
{"smiles": "CC#C[C@@H](CC(=O)O)c1ccc(OCc2ccc3scc(-c4c(C)cccc4C)c3c2)cc1", "note": "[Cpd 10, (3S)-3-[4-[[3-(2,6-Dimethylphenyl)benzo[b]thiophen-5-yl]methoxy]phenyl]hex-4-ynoic acid]", "EC50": 41}
{"smiles": "CC#C[C@@H](CC(=O)O)c1ccc(OCc2ccc3scc(-c4ccc(OCCC5(O)CC5)cc4C)c3c2)cc1", "note": "[Cpd 11, (3S)-3-(4-((3-(4-(2-(1-Hydroxycyclopropyl)ethoxy)-2-methylphenyl)benzo[b]thiophen-5-yl)methoxy)phenyl)hex-4-ynoic acid]", "EC50": 16}
{"smiles": "Cc1cc(N2CC3(CCS3(=O)=O)C2)ccc1-c1csc2ccc(COc3ccc(C4(CC(=O)O)CC(=O)C4)cc3)cc12", "note": "[Cpd 40, 2-(1-(4-((3-(4-(1,1-Dioxido-1-thia-6-azaspiro[3.3]heptan-6-yl)-2-methylphenyl)benzo[b]thiophen-5-yl)methoxy)phenyl)-3-oxocyclobutyl)acetic acid]", "EC50": 15}
{"smiles": "CC#C[C@@H](CC(=O)O)c1ccc(OCc2ccc3scc(-c4ccc(C5=CCS(=O)(=O)CC5)cc4C)c3c2)cc1", "note": "[Cpd 6, (3S)-3-[4-[[3-[4-(1,1-Dioxo-3,6-dihydro-2H-thiopyran-4-yl)-2-methyl-phenyl]benzo[b]thiophen-5-yl]methoxy]phenyl]hex-4-ynoic acid]", "EC50": 15}
